The subject of this assay is Human immunodeficiency virus 1. Description: Antiviral activity against Human immunodeficiency virus 1 infected human MT4 cells assessed as inhibition of virus-induced cytopathic effect by MTT assay. The assay is classed as functional, organism-based. Conditions: Human immunodeficiency virus 1, MT4. In general terms: Protection from cytopathic effect is a common read-out in antiviral testing.
Take `N#CCN1C(=O)N(Cc2cccc(Cl)c2)S(=O)(=O)c2cscc21`: the concentration giving a half-maximal response (EC50) was 0.1 µM.

For `N#CCN1C(=O)N(Cc2cccc(F)c2)S(=O)(=O)c2cscc21`, the 50% effective concentration (EC50) came to 0.3 µM.

Regarding `O=C1N(Cc2ccccc2)c2cscc2S(=O)(=O)N1CCc1ccccc1`, the EC50 came to 41.4 µM.

Turning to `N#CCN1C(=O)N(Cc2cc(F)cc(F)c2)S(=O)(=O)c2cscc21`, the EC50 is 8.6 µM.

In the case of `N#CCN1C(=O)N(Cc2ccccc2)S(=O)(=O)c2cscc21`, the concentration giving a half-maximal response (EC50) was 0.87 µM.

Take `O=C1N(Cc2ccccc2)c2cscc2S(=O)(=O)N1Cc1ccccn1`: the concentration for a half-maximal effect (EC50) worked out at 0.2 µM.

Regarding `CN1C(=O)N(Cc2cccc(Cl)c2)S(=O)(=O)c2cscc21`, the EC50 is 2.1 µM.

For the compound `CCN1C(=O)N(Cc2ccccc2)S(=O)(=O)c2cscc21`, the EC50 was determined as 2.4 µM.

As to `CCN1C(=O)N(Cc2ccccn2)S(=O)(=O)c2cscc21`, the EC50 turned out to be 1.1 µM.

As for `CCN1C(=O)N(c2cccc(Cl)c2)S(=O)(=O)c2cscc21`, the concentration for a half-maximal effect (EC50) amounted to 61.3 µM.

For the compound `CCCN1C(=O)N(Cc2ccccc2)S(=O)(=O)c2cscc21`, the EC50 is 6.1 µM.

On to `C=CCN1C(=O)N(Cc2ccccc2)S(=O)(=O)c2cscc21`, for which the EC50 is 6.3 µM.

`N#CCCN1C(=O)N(Cc2ccccc2)S(=O)(=O)c2cscc21`: the 50% effective concentration (EC50) is 4.9 µM.

Turning to `O=C1N(c2cccc(Cl)c2)c2cscc2S(=O)(=O)N1Cc1ccccc1`, the concentration for a half-maximal effect (EC50) amounted to 1.4 µM.

Regarding `O=C1N(c2ccc(Cl)cc2)c2cscc2S(=O)(=O)N1Cc1ccccc1`, the EC50 was determined as 7.4 µM.

Consider `O=C1N(c2ccccc2Cl)c2cscc2S(=O)(=O)N1Cc1ccccc1`, for which the half-maximal effective concentration (EC50) was 0.1 µM.

Consider `C#CCN1C(=O)N(Cc2ccccc2)S(=O)(=O)c2cscc21`, for which the concentration giving a half-maximal response (EC50) amounted to 0.96 µM.

Regarding `N#CCN1C(=O)N(CCc2ccccc2)S(=O)(=O)c2cscc21`, the EC50 turned out to be 10.9 µM.

Take `N#CCN1C(=O)N(Cc2ccccn2)S(=O)(=O)c2cscc21`: the EC50 worked out at 0.4 µM.

For `CCN1C(=O)N(Cc2cccc(Cl)c2)S(=O)(=O)c2cscc21`, the EC50 stood at 0.09 µM.

With `O=C1N(Cc2ccccc2)c2cscc2S(=O)(=O)N1Cc1ccccc1`, the EC50 was found to be 2.2 µM.

For `C#CCN1C(=O)N(Cc2cccc(Cl)c2)S(=O)(=O)c2cscc21`, the EC50 is 0.09 µM.

For `N#CCN1C(=O)N(Cc2cccc(Br)c2)S(=O)(=O)c2cscc21`, the EC50 was 0.05 µM.

As to `CCN1C(=O)N(Cc2ccccc2Cl)S(=O)(=O)c2cscc21`, the EC50 amounted to 7.6 µM.

As for `N#CCN1C(=O)N(Cc2cccnc2)S(=O)(=O)c2cscc21`, the half-maximal effective concentration (EC50) is 0.8 µM.

Take `CCOC(=O)CN1C(=O)N(Cc2ccccc2)S(=O)(=O)c2cscc21`: the EC50 amounted to 7.3 µM.

In the case of `CCN1C(=O)N(CCc2ccccc2)S(=O)(=O)c2cscc21`, the EC50 was determined as 3.6 µM.

Turning to `CN1C(=O)N(Cc2ccccc2)S(=O)(=O)c2cscc21`, the EC50 was 2.7 µM.

What is called EC50 is the concentration at which the effect is half-maximal.

Values taken from ChEMBL document CHEMBL3046094, “Predicting anti-HIV activity of 1,1,3-trioxo[1,2,4]-thiadiazine (TTD) derivatives: 3D QSAR approach” (Med Chem Res, 2009).
